{
  "source": "patent US20100105021A1",
  "about": "“STABILISATION OF BIOLOGICAL CELL MARKERS” (THE UNIVERSITY OF NOTTINGHAM, priority 2007, published 2010)",
  "key": {"[1]": {"system": "platelet activation marker CD62P (P-selectin) on platelets", "assay": "Flow cytometric analysis of CD62P expression in diluted blood stimulated with a platelet stimulant and then fixed", "format": "cell-based, human", "conditions": "then fixed; for percentage of gated cells in P3 (% parent), CD62P: gate P3 set at 1% with IgG control, CD61-positive platelets; for median fluorescence of CD62P (P1 AND P2): whole population of CD61 positive cells, IgG control 2", "experimental": "The inventors then set out to test the efficacy of the platelet stabilising composition by determining the expression levels of the platelet activation marker, CD62P (ie P-selectin), using flow cytometry.\nInitially, an experiment was carried out in order to measure the level of expression of the platelet activation marker, CD62P, by flow cytometry in an IgG control sample. […] Platelets were gated in both P1 (top, centre in FIG. 1) and P2 (top, right in FIG. 1) in plots of a platelet identifier antibody, CD61-PerCP, against both side scatter (SSC) and forward scatter (FSC).\nApproximately 3,000 CD61-positive platelet events were recorded. The CD61-positive cells were then drawn on a dot plot of CD62P against SSC (centre of FIG. 1). A frequency histogram of CD62P fluorescence against cell count was then used to quantify the percentage of cells from the parent population that were present in an interval gate P3 (bottom, left of FIG. 1). […] The gate was set at 1% using the appropriate IgG control sample and recorded in the statistics box (bottom right of FIG. 1). The median fluorescence of CD62P was also recorded for the whole population of CD61 positive cells (P1 AND P2).\nFlow cytometric analysis was carried out to determine CD62P expression in an unstimulated sample of blood diluted with saline alone and then fixed.\nFlow cytometric analysis was carried out to determine CD62P expression in a diluted sample of blood stimulated with adenosine diphosphate (ADP) and then fixed.\nFlow cytometric analysis was carried out to determine CD62P expression in a diluted sample of blood stimulated with the thromboxane mimetic U46619 and then fixed.\nFlow cytometric analysis was carried out to determine CD62P expression in a diluted sample of blood stimulated with thrombin receptor activating peptide (TRAP) and then fixed."}, "[2]": {"system": "platelet activation marker CD62P", "conditions": "both groups where aspirin was added (healthy volunteers, patients on aspirin)", "experimental": "Blood samples were obtained from (a) a group of healthy volunteers who were not being treated with aspirin, and (b) a group of patients who were on aspirin therapy. A CD62P stimulant combination of arachidonic acid and epinephrine, or arachidonic acid and epinephrine, in the presence of aspirin (as a control), were added to each blood sample for 4 minutes, followed by the stabilisation composition of the invention."}},
  "data": [
    {"compound": "Nc1ncnc2c1ncn2[C@@H]1O[C@H](COP(=O)(O)OP(=O)(O)O)[C@@H](O)[C@H]1O", "note": "[ADP, adenosine diphosphate]", "values": [
      {"measurement": "percentage of gated cells in P3 (% parent), CD62P", "setting": "[1]", "result": 70.8, "unit": "%"},
      {"measurement": "median fluorescence of CD62P (P1 AND P2)", "setting": "[1]", "result": 365}
    ]},
    {"compound": "CCCCC[C@H](O)/C=C/[C@@H]1[C@@H](C/C=C\\CCCC(=O)O)[C@H]2CO[C@@H]1C2", "note": "[U46619]", "values": [
      {"measurement": "percentage of gated cells in P3 (% parent), CD62P", "setting": "[1]", "result": 95.3, "unit": "%"},
      {"measurement": "median fluorescence of CD62P (P1 AND P2)", "setting": "[1]", "result": 1191}
    ]},
    {"compound": "CC(=O)Oc1ccccc1C(=O)O", "note": "[aspirin]", "values": [
      {"measurement": "inhibition of CD62P expression", "setting": "[2]", "result": "completely inhibited"}
    ]},
    {"compound": "thrombin receptor activating peptide [TRAP]", "values": [
      {"measurement": "percentage of gated cells in P3 (% parent), CD62P", "setting": "[1]", "result": 97.5, "unit": "%"},
      {"measurement": "median fluorescence of CD62P (P1 AND P2)", "setting": "[1]", "result": 1646}
    ]}
  ]
}
